Assay results taken from patent US20250230193A1, “CYCLIC COMPOUND HAVING SELECTIVE KRAS INHIBITORY EFFECT ON HRAS AND NRAS” (CHUGAI SEIYAKU KABUSHIKI KAISHA, priority 2022, published 2025).
*1 amine or outer side, *2 acyl side, *3 side chain or, on linkers, in order; H or OH if unused. Where a SMILES comes first, the peptide text is derived from it. Bridges are numbered along the chain shown (N, C = ends). [ ]: non-standard residue; d: D form. The star is where a group is joined. hPhe(3-Cl-4-CF3) = N[C@@H](CCc1ccc(C(F)(F)F)c(Cl)c1)C(=O)O; X32 = COCCN([C@@H](Cc1ccc(C(F)(F)F)cc1)C(=O)[*:2])[*:1]; NPrPhe(4-CF3) = CCCN[C@@H](Cc1ccc(C(F)(F)F)cc1)C(=O)O; NMeGly(cPent) = CN[C@H](C(=O)O)C1CCCC1; NMeD = CN[C@@H](CC(=O)O)C(=O)O; NMeL = CN[C@@H](CC(C)C)C(=O)O; Morpholide = C1CN(*)CCO1; NMeA = CN[C@@H](C)C(=O)O; Ac5c = NC1(C(=O)O)CCCC1; Aze = O=C(O)[C@@H]1CCN1; NPrGly = CCCNCC(=O)O; Sar = CNCC(=O)O

Assays:
[1] = target: GDP-bound NRAS wild-type protein (Homo sapiens, UniProt P01111); assay: Binding to NRAS by surface plasmon resonance (SPR), Single Cycle Kinetics; conditions: SPR
GDP-bound NRAS wild-type protein, sequence (P01111 whole entry): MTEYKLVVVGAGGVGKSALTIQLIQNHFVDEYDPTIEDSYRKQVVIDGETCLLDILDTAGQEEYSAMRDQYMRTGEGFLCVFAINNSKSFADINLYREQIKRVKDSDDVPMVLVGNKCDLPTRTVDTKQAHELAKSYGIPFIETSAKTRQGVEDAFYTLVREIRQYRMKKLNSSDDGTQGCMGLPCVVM

[2] = target: GDP-bound HRAS wild-type protein (Homo sapiens, UniProt P01112); assay: Binding to HRAS by surface plasmon resonance (SPR), Single Cycle Kinetics; conditions: SPR
GDP-bound HRAS wild-type protein, sequence (P01112 whole entry): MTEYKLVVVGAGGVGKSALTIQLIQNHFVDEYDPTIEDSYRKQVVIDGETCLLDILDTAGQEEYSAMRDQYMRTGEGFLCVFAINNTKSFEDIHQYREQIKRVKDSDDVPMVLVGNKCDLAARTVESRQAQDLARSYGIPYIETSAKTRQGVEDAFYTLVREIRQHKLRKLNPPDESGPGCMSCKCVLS

Compound | NRAS/KRAS (ratio of KD for GDP-bound NRAS wild-type to KD for KRAS) [1] | HRAS/KRAS (ratio of KD for GDP-bound HRAS wild-type to KD for KRAS) [2] | NRAS/KRAS (ratio of KD value with respect to GDP-bound NRAS wild-type protein to KD value with respect to KRAS) [1] | HRAS/KRAS (ratio of KD value with respect to GDP-bound HRAS wild-type protein to KD value with respect to KRAS) [2] | further results
CCC[C@H]1C(=O)N[C@@H]([C@@H](C)CC)C(=O)N(C)CC(=O)N(C)[C@H]2C/C=C\CCN(C2=O)[C@@H](Cc2ccc(C)cc2)C(=O)N(C)CC(=O)N[C@@H](CCc2ccc(C(F)(F)F)c(OC)c2)C(=O)N2C[C@H](OCC)C[C@H]2C(=O)N(C)C2(CCC2)C(=O)N(C)[C@@H](C2CCCC2)C(=O)N(C)[C@H](C(=O)N2CCCC2)CC(=O)N1C [PP3106, (2S,8S,12R,14S,20S,23S,27S,30S,36S,38Z)-20-cyclopentyl-12-ethoxy-8-[2-[3-methoxy-4-(trifluoromethyl)phenyl]ethyl]-4,16,19,22,26,32,35-heptamethyl-30-[(1S)-1-methylpropyl]-27-propyl-2-(p-tolylmethyl)-23-(pyrrolidine-1-carbonyl)spiro[1,4,7,10,16,19,22,26,29,32,35-undecazatricyclo[34.5.1.0^10,14]dotetracont-38-ene-17,1′-cyclobutane]-3,6,9,15,18,21,25,28,31,34,42-undecone] | – | – | – | – | NRAS/KRAS (ratio of KD value with respect to GDP-bound NRAS wild-type protein to KD value with respect to KRAS) ([1]; GDP-bound wild-type proteins): A (a compound having 10 or more and less than 20 is denoted as A); HRAS/KRAS (ratio of KD value with respect to GDP-bound HRAS wild-type protein to KD value with respect to KRAS) ([2]; GDP-bound wild-type proteins): A (a compound having 10 or more and less than 20 is denoted as A)
CCCN1CC(=O)N2CC[C@H]2C(=O)N(CCC)[C@@H](Cc2ccc(C(F)(F)F)cc2)C(=O)N(C)CC(=O)N[C@@H](CCc2ccc(C(F)(F)F)c(Cl)c2)C(=O)N2CCC[C@H]2C(=O)NC2(CCCC2)C(=O)N(C)[C@@H](C2CCCC2)C(=O)N(C)[C@H](C(=O)N2CCOCC2)CC(=O)N(C)[C@@H](CC(C)C)C(=O)N[C@@H]([C@@H](C)CC)C1=O [PP0274] ([NMeL]I[NPrGly][Aze][NPrPhe(4-CF3)][Sar][hPhe(3-Cl-4-CF3)]P[Ac5c][NMeGly(cPent)][NMeD]-Morpholide; lactam N-11) | C (A compound having a KD ratio of 0.1 or more and less than 3 is denoted as C) | B (a compound having 3 or more and less than 10 is denoted as B) | – | – | –
CCO[C@@H]1C[C@H]2C(=O)NC3(CCCC3)C(=O)N(C)[C@@H](C3CCCC3)C(=O)N(C)[C@H](C(=O)N(C)C)CC(=O)N(C)[C@@H](C)C(=O)N[C@@H]([C@@H](C)CC)C(=O)N(C)CC(=O)N(C)[C@H]3CCCCCN(C3=O)[C@@H](Cc3ccc(C(F)(F)F)cc3)C(=O)N(C)CC(=O)N[C@@H](CCc3cc(F)c(C(F)(F)F)c(F)c3)C(=O)N2C1 [PP0475] | – | – | B (a compound having 3 or more and less than 10 is denoted as B) | B (a compound having 3 or more and less than 10 is denoted as B) | –
C=CCCCC[C@H]1C(=O)N[C@@H]([C@@H](C)CC)C(=O)N(C)CC(=O)N(C)[C@H]2CCCCN(C2=O)[C@@H](Cc2ccc(C(F)(F)F)cc2)C(=O)N(C)CC(=O)N[C@@H](CCc2cc(F)c(C(F)(F)F)c(F)c2)C(=O)N2C[C@H](OCC)C[C@H]2C(=O)N[C@](C)(CC=C)C(=O)N(C)[C@@H](C2CCCC2)C(=O)N(C)[C@H](C(=O)N2CCOCC2)CC(=O)N1C [PP0877] | – | – | – | – | NRAS/KRAS (ratio of KD value with respect to NRAS to KD value with respect to KRAS) ([1]; KD ratio, GDP-bound NRAS wild-type vs GDP-bound KRAS wild-type): C (A compound having a KD ratio of 0.1 or more and less than 3 is denoted as C); HRAS/KRAS (ratio of KD value with respect to HRAS to KD value with respect to KRAS) ([2]; KD ratio, GDP-bound HRAS wild-type vs GDP-bound KRAS wild-type): B (a compound having 3 or more and less than 10 is denoted as B)
CC[C@H](C)[C@@H]1NC(=O)[C@H](CC(F)(F)F)N(C)C(=O)C[C@@H](C(=O)N2CCOCC2)N(C)C(=O)[C@H](C2CCCC2)N(C)C(=O)C2(CCCC2)NC(=O)[C@@H]2CCCN2C(=O)[C@H](CCc2cc(F)c(C(F)(F)F)c(F)c2)NC(=O)CN(C)C(=O)[C@H](Cc2ccc(C(F)(F)F)cc2)N2CCCC[C@@H](C2=O)N(C)C(=O)CN(C)C1=O [PP0594] | – | – | C (A compound having a KD ratio of 0.1 or more and less than 3 is denoted as C) | B (a compound having 3 or more and less than 10 is denoted as B) | –
CC[C@H](C)[C@@H]1NC(=O)[C@H](CC(C)C)N(C)C(=O)C[C@@H](C(=O)N2CCOCC2)N(C)C(=O)[C@H](C2CCCC2)N(C)C(=O)C2(CCCC2)NC(=O)[C@@H]2CCCN2C(=O)[C@H](CCc2ccc(C(F)(F)F)c(Cl)c2)NC(=O)CN(C)C(=O)[C@H](Cc2ccc(C(F)(F)F)cc2)N(CCOC)C(=O)[C@@H]2CCN2C(=O)[C@H](C)N(C)C1=O [PP0118] ([NMeL]I[NMeA][Aze][X32][Sar][hPhe(3-Cl-4-CF3)]P[Ac5c][NMeGly(cPent)][NMeD]-Morpholide; lactam N-11) | C (A compound having a KD ratio of 0.1 or more and less than 3 is denoted as C) | C (A compound having a KD ratio of 0.1 or more and less than 3 is denoted as C) | – | – | –
